Experimental data taken from patent US8158587B2, “Compound having histone deacetylase-inhibiting activity, and pharmaceutical composition comprising the compound as an active ingredient” (Kyushu Institute of Technology, priority 2006, dated 2012).

Experiments:
[1] = tested on: lung cancer cell line NCI-H522; experiment: Human cancer cell line panel, proliferation (sulforhodamine B); format: cell-based; details: NCI-H522, 2 days of cultivation; read-out: 50% inhibitory concentration, proliferation
Text: (§1) The characteristics of the human cancer cell proliferation-inhibiting activity of the compounds of the present invention were examined by the “method of evaluating the mechanisms of action of compounds using a panel of human cancer cell lines” as proposed by Yamori et al. (cf. Gan to Kagaku Ryoho (Cancer and Chemotherapy) 29 Suppl. II (2002) and Cancer Chemother. Pharmacol. 52 Suppl. I, S74-79 (2003)).
(§2) This system includes […] (7 lung cancer, 6 stomach cancer, 5 colon cancer, 5 ovarian cancer, 6 brain tumor, […], 2 kidney cancer and 2 prostate cancer cell lines as well as one melanoma line) and the method comprises measuring the in vitro drug susceptibilities of those cancer cell lines and expressing the differences in drug susceptibility among the respective cancer cell lines as a fingerprint. […] By utilizing this property, it is possible to estimate the mechanisms of action of a compound. The above method is also characterized in that an anticancer substance showing new and unique mechanisms of action different from those of the existing anticancer agents can be selected.
(§3) Cancer cells of each cell line are sowed onto a 96-well plate, a sample solution is added on the next day and, after 2 days of cultivation, the cell proliferation is measured by colorimetry using sulforhodamine B. The deviations in effective concentration for the respective cancer cell lines from the mean effective drug concentration for the 39 cancer cell lines subjected to measurement are calculated and shown in the form a fingerprint.

[2] = tested on: melanoma cell line LOX-IMVI; experiment: as above; format: cell-based; details: 2 days of cultivation, read-out: 50% inhibitory concentration, proliferation
Text: as §1, §2, §3

[3] = biological target: T1, human HDAC4 (Homo sapiens, UniProt P56524); experiment: HDAC-inhibiting activity, coumarin-labeled acetylated histone peptide assay; format: biochemical; details: human HDAC4 from transfected 293T cells; 37° C., 30 minutes; read-out: HDAC-inhibiting activity IC50 HDAC4
T1 construct: made in house; host or cells: 293T cells (transient transfection, anti-FLAG immunoprecipitation, FLAG peptide elution)
Experimental: In carrying out HDAC-inhibiting activity measurements, HDAC solutions were prepared in the following manner. […] The human HDAC1 expression vector used was pcDNA3-HD1 (Yang, W. M., Yao, Y. L., Sun, […]. & Seto, E. (1997) J. Biol. Chem. 272, 28001-28007), the human HDAC4 expression vector used was pcDNA3-HD4 ([…]., Nagase, […]. Biol. Chem. 274, 11713-11720), and the murine HDAC6 expression vector used was pcDNA3-mHDA2/HDAC6 ([…]. Biol. Chem. 274, 2440-2445). After 24 hours of incubation, cells were recovered, washed with PBS, suspended in lysis buffer (50 mM Tris-HCl (pH 7.5), 120 mM NaCl, 5 mM EDTA, 0.5% Nonidet P-40), and sonicated. The supernatant was collected by centrifugation and then deprived of nonspecific proteins using Protein A/G plus agarose beads (Santa Cruz Biotechnologies, Inc.). Thereafter, anti-FLAG M2 antibody (Sigma-Aldrich Inc.) was added, and the reaction was allowed to proceed at 4° C. for 2 hours. To this were added agarose beads, the reaction was allowed to proceed at 4° C. for 3 hours, and the agarose beads were washed three times with lysis buffer and then once with HD buffer (20 mM Tris-HCl (pH 8.0), 150 mM NaCl, 10% glycerol). […] HDAC-inhibiting activity evaluation in each in vitro system was made as follows. Each test compound was dissolved in DMSO, a stock solution with a concentration of 10 mM was thus prepared and this was used as an inhibitor stock solution. The assay was carried out by incubating the HDAC solution and a coumarin-labeled acetylated histone peptide solution in the presence of the test compound at 37° C. for 30 minutes (reaction volume 20 μl). To the reaction mixture was added 30 μl of trypsin, and the aminomethylcoumarin released by the enzymatic reaction was assayed using a fluorescent plate reader. In a negative control assay, no inhibitor was added to the reaction system and the same procedure was carried out.

[4] = tested on: human wild type p21 promoter; experiment: p21 promoter assay (luciferase) in MFLL-9 cells; format: cell-based; details: 20 hours, concentration giving 1000% luminescence relative to negative control (100%)
Experimental: As an HDAC-inhibiting activity in an […] system, the following measurement was carried out using the p21 promoter inducing activity as an index. MFLL-9 cells used in the experiment are cells stably retaining a fusion gene (Dr. B. Vogelstaein) from the human wild type p21 promoter and luciferase gene. They were cultured using phenol red-free DMEM supplemented with 10% FBS in a steam-saturated incubator at 37° C. in the presence of 5% carbon dioxide. These MFLL-9 cells were sowed onto a 96-well microplate at a cell density of 2×10^4 cells/well and, after 24 hours of cultivation in 99 μl, per well, of the medium mentioned above, each test compound solution was added, followed by 20 hours of incubation. […] In a negative control, the same procedure was carried out without adding any inhibitor to the reaction system.
Using Luciferase Assay Reagent (Promega), the intensity of the luminescence due to the product of the enzymatic reaction involving luciferase expressed within cells was measured.

[5] = biological target: T2, human HDAC1 (Homo sapiens, UniProt Q13547); experiment: HDAC-inhibiting activity, coumarin-labeled acetylated histone peptide assay; format: biochemical; details: human HDAC1 from transfected 293T cells; 37° C., 30 minutes
T2 construct: made in house; host or cells: 293T cells (transient transfection, anti-FLAG immunoprecipitation, FLAG peptide elution)
Experimental: (§4) In carrying out HDAC-inhibiting activity measurements, HDAC solutions were prepared in the following manner. In each 100-mm dish, there were sowed 1×10^7 293T cells and, after 24 hours, they were transfected with a vector (5 μg) expressing human HDAC1 or HDAC4 or murine HDAC6 using the LipofectAmine 2000 reagent (Invitrogen). The human HDAC1 expression vector used was pcDNA3-HD1 (Yang, W. M., Yao, Y. L., Sun, J. M., Davie, J. R. & Seto, E. (1997) J. Biol. Chem. 272, 28001-28007), the human HDAC4 expression vector used was pcDNA3-HD4 (Fischle, W., Emiliani, S., Hendzel, M. J., Nagase, T., Nomura, N., Voelter, W. & Verdin, E. (1999) J. Biol. Chem. 274, 11713-11720), and the murine HDAC6 expression vector used was pcDNA3-mHDA2/HDAC6 (Verdel, A. & Khochbin, S. (1999) J. Biol. Chem. 274, 2440-2445).
(§5) After 24 hours of incubation, cells were recovered, washed with PBS, suspended in lysis buffer (50 mM Tris-HCl (pH 7.5), 120 mM NaCl, 5 mM EDTA, 0.5% Nonidet P-40), and sonicated. The supernatant was collected by centrifugation and then deprived of nonspecific proteins using Protein A/G plus agarose beads (Santa Cruz Biotechnologies, Inc.). Thereafter, anti-FLAG M2 antibody (Sigma-Aldrich Inc.) was added, and the reaction was allowed to proceed at 4° C. for 2 hours.
(§6) To this were added agarose beads, the reaction was allowed to proceed at 4° C. for 3 hours, and the agarose beads were washed three times with lysis buffer and then once with HD buffer (20 mM Tris-HCl (pH 8.0), 150 mM NaCl, 10% glycerol). The protein bound to the agarose beads was recovered by 1 hour of incubation with FLAG peptide (40 μg) (Sigma-Aldrich Inc.) in HD buffer (200 μl) at 4° C., and the liquid recovered was used, as a reactant solution, in the HDAC-inhibiting activity measurement described below.
(§7) HDAC-inhibiting activity evaluation in each in vitro system was made as follows. Each test compound was dissolved in DMSO, a stock solution with a concentration of 10 mM was thus prepared and this was used as an inhibitor stock solution. The assay was carried out by incubating the HDAC solution and a coumarin-labeled acetylated histone peptide solution in the presence of the test compound at 37° C. for 30 minutes (reaction volume 20 μl). To the reaction mixture was added 30 μl of trypsin, and the aminomethylcoumarin released by the enzymatic reaction was assayed using a fluorescent plate reader. In a negative control assay, no inhibitor was added to the reaction system and the same procedure was carried out.

[6] = biological target: T3, murine HDAC6 (Mus musculus, UniProt Q9Z2V5); experiment: as above; format: biochemical; details: murine HDAC6 from transfected 293T cells; 37° C., 30 minutes
T3 construct: made in house; host or cells: 293T cells (transient transfection, anti-FLAG immunoprecipitation, FLAG peptide elution)
T3 sequence (Q9Z2V5 1-1149): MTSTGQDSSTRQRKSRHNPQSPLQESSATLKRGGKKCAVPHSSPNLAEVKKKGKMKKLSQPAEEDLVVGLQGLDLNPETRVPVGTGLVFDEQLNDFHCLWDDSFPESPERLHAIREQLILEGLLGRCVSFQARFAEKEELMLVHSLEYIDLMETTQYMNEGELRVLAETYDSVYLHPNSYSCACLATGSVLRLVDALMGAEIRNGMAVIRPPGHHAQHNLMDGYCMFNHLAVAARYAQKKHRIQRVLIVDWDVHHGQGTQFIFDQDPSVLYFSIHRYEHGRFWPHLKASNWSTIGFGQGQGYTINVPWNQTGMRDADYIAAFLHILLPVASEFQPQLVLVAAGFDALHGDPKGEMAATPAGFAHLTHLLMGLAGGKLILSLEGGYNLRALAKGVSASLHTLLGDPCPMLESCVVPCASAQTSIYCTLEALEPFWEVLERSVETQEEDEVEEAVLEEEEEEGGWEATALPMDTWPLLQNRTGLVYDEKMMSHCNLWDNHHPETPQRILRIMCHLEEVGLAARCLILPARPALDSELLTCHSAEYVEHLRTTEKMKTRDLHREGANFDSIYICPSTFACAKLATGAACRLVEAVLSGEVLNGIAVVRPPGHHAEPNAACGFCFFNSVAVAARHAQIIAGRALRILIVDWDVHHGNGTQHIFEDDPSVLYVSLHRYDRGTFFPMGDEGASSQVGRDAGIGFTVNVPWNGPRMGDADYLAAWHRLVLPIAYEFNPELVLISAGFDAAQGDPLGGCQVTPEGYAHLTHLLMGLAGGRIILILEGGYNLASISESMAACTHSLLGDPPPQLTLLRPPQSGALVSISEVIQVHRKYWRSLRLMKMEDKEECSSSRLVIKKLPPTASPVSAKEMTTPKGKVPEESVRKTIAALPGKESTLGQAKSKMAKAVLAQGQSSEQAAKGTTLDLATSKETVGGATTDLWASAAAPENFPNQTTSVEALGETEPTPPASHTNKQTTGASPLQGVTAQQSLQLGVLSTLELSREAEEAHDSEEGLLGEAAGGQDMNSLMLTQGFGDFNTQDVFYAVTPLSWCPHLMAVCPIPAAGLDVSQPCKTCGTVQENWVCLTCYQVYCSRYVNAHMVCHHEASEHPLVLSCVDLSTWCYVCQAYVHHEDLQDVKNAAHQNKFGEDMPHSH
Experimental: as §4, §5, §6, §7

T1 sequence (P56524 whole entry): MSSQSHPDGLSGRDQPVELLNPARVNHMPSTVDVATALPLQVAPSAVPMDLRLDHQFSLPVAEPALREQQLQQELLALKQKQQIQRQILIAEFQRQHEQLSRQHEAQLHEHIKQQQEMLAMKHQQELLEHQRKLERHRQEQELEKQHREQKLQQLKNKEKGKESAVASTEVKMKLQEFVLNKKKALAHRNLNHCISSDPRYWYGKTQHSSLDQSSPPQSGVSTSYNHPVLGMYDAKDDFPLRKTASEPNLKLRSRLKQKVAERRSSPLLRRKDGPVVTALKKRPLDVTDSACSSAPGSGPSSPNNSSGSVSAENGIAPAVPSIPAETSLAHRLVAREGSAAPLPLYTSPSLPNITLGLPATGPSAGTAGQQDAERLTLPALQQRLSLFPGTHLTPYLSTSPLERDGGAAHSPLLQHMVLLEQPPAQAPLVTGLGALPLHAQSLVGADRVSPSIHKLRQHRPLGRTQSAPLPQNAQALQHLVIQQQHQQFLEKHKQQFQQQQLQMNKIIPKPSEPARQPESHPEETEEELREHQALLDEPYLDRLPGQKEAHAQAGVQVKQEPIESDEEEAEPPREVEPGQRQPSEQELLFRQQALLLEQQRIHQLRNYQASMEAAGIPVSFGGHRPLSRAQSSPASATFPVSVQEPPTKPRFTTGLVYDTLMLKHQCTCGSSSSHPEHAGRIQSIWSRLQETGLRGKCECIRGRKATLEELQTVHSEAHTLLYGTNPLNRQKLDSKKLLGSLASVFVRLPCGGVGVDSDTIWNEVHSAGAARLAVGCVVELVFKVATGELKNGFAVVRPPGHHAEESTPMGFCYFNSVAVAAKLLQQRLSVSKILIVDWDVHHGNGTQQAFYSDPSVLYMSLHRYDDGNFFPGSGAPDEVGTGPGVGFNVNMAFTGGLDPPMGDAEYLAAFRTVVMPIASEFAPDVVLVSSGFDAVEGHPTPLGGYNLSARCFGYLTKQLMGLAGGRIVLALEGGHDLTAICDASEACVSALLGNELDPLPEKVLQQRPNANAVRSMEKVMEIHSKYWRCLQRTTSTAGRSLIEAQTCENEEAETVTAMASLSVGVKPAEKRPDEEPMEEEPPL
T1 sequence (O15379 whole entry, further chain): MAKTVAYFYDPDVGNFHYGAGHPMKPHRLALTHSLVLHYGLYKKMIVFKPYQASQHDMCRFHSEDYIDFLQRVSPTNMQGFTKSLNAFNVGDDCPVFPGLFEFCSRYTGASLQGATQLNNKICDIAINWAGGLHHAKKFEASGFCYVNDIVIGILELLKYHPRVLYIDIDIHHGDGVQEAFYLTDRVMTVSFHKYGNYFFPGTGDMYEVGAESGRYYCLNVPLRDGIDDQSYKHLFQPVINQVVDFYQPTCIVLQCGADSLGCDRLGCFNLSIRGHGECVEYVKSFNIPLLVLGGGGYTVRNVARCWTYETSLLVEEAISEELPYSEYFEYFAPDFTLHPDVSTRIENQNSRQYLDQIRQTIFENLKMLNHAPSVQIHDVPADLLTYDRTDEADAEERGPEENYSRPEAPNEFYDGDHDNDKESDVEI
T2 sequence (Q13547 whole entry): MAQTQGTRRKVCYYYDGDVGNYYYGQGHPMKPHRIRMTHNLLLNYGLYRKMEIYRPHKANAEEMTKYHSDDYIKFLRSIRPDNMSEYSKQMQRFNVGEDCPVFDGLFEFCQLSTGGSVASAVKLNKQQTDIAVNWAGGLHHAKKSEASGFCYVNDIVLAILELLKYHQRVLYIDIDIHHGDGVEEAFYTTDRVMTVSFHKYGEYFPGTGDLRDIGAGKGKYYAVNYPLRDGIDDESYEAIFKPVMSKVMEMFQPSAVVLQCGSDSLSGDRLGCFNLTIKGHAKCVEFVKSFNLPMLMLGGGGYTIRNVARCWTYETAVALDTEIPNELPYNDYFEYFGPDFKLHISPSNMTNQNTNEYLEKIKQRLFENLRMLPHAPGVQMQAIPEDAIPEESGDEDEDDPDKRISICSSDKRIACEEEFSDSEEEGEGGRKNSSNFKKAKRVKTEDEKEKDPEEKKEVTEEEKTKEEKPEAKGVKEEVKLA

Row | SMILES | IC50 [1] | IC50 [2] | IC50 [3] | p21 promoter activity EC1000 [4] | IC50 [5] | IC50 [6]
1 | COCC(=O)CCCCC[C@@H]1NC(=O)[C@H]2CCCN2C(=O)[C@H](Cc2ccccc2)NC(=O)C(C)(C)NC1=O [Ky-9, cyclo(-L-Ae9(Mmk)-Aib-L-Phe-D-Pro-)] | ≤ 0.1 µM | ≤ 0.1 µM | 0.028 µM | 0.043 µM | – | –
2 | CC1(C)NC(=O)[C@H](CCCCCSCc2cccnc2)NC(=O)[C@H]2CCCN2C(=O)[C@H](Cc2ccccc2)NC1=O [Ky-68, cyclo(-L-Am7(3-pyridylmethyl)-Aib-L-Phe-D-Pro-)] | – | – | 0.33 µM | 0.20 µM | 0.4 µM | 3.7 µM
3 | CC1(C)NC(=O)[C@H](CCCCCSCc2ccccc2)NC(=O)[C@H]2CCCN2C(=O)[C@H](Cc2ccccc2)NC1=O [Ky-69, cyclo(-L-Am7(benzyl)-Aib-L-Phe-D-Pro-)] | – | – | 0.0065 µM | 0.041 µM | 0.011 µM | 0.12 µM
4 | CC1(C)NC(=O)[C@H](CCCCC[S+]([O-])CC(=O)C(F)(F)F)NC(=O)[C@H]2CCCN2C(=O)[C@H](Cc2ccccc2)NC1=O (stereo partly drawn) [Ky-71, cyclo(-L-Am7(1,1,1-trifluoroacetonyl, sulfoxide)-Aib-L-Phe-D-Pro-)] | – | – | > 100 µM | 3.4 µM | > 100 µM | > 100 µM
5 | CC1(C)NC(=O)[C@H](CCCCCCSCC(=O)C(F)(F)F)NC(=O)[C@H]2CCCN2C(=O)[C@H](Cc2ccccc2)NC1=O [Ky-73, cyclo(-L-Am8(1,1,1-trifluoroacetonyl)-Aib-L-Phe-D-Pro-)] | – | – | 0.46 µM | 3.7 µM | 1.1 µM | 26.4 µM
6 | CC(=O)COCCCCC[C@@H]1NC(=O)[C@H]2CCCN2C(=O)[C@H](Cc2ccccc2)NC(=O)C(C)(C)NC1=O [Ky-74, cyclo(-L-Ah7(acetonyl)-Aib-L-Phe-D-Pro-)] | – | – | > 100 µM | >250 µM | > 100 µM | > 100 µM
7 | COCC(=O)CSCCCCC[C@@H]1NC(=O)[C@H]2CCCN2C(=O)[C@H](Cc2ccccc2)NC(=O)C(C)(C)NC1=O [Ky-85, cyclo(-L-Am7(methoxyacetonyl)-Aib-L-Phe-D-Pro-)] | – | – | 0.077 µM | 0.48 µM | 0.13 µM | 1.2 µM
